Assay results published in patent US7163928B2 (CV Therapeutics, Inc., priority 2003, dated 2007).
Several values for one entry are separate records, joined by “and”; a condition that tells them apart may be missing. Equal values may be shown once.

Molecular target: T1, A1 adenosine receptor (Mesocricetus auratus, UniProt A0A1U8BVR4)
T1 construct: A1 adenosine receptor sites on the membranes of DDT cells; endogenous in cells; host or cells: DDT1 cells (hamster vas deferens smooth muscle cell line), membrane preparation
T1 sequence (A0A1U8BVR4 1-326): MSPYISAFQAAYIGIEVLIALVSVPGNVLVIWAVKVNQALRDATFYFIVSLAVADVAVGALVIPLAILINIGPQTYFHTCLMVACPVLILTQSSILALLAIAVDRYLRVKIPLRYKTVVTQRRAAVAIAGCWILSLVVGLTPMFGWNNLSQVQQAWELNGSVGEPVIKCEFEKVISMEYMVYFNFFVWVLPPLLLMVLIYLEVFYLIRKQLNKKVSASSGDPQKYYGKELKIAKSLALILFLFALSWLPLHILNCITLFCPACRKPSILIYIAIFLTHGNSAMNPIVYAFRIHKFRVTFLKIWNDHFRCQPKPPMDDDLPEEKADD
Test: Competitive binding assay, DDT cell membranes, 3H-CPX
Parameters: species or system hamster
Settings: 1.5 nM 3H-CPX, 10 μM GTP-γS, 23° C. 90 minutes, read-out: Ki (low)
Method: DDT cells (hamster vas deferens smooth muscle cell line) were grown as monolayers in petri dishes using Dulbecco's Modified Eagle's Medium (DMEM) containing 2.5 μg mL^−1 amphotericin B, 100 U mL^−1 penicillin G, 0.1 mg mL^−1 streptomycin sulfate and 5% fetal bovine serum in a humidified atmosphere of 95% air and 5% CO2. Cells were subcultured twice weekly by dispersion in Hank's Balanced Salt Solution (HBSS) without the divalent cations and containing 1 mM EDTA. The cells were then seeded in growth medium at a density of 1.2×10^5 cells per plate and experiments were performed 4 days later at approximately one day preconfluence.
Attached cells were washed twice with HBSS (2×10 mL), scraped free of the plate with the aid of a rubber policeman in 5 mL of 50 mM Tris-HCl buffer pH 7.4 at 4° C. and the suspension homogenized for 10 s. The suspension was then centrifuged at 27,000×g for 10 min. The pellet was resuspended in homogenization buffer by vortexing and centrifuged as described above. The final pellet was resuspended in 1 vol of 50 mM Tris-HCl buffer pH 7.4 containing 5 mM MgCl2 for A1 adenosine receptor assays. For the [^35S]GTPγS binding assay the final pellet was resuspended in 50 mM Tris-HCl pH 7.4 containing 5 mM MgCl2, 100 mM NaCl and 1 mM dithiothreitol. This membrane suspension was then placed in liquid nitrogen for 10 min, thawed and used for assays. The protein content was determined with a Bradford™ Assay Kit using bovine serum albumin as standard.
Compounds of Formula I were assayed to determine their affinity for the A1 adenosine receptor sites on the membranes of DDT cells. Briefly, 50–70 ug of membrane protein were incubated in a mixture containing 2 U/ml adenosine deaminase, 10 μM GTP-γS in 5 mM HE buffer containing 5 mM MgCl2 in glass tubes Stock solutions of the compounds of the invention were serially diluted (10^−10M to 10^−4M) in HE buffer or HE buffer alone (to determine total binding) and added to the incubation mixture. Finally, tritiated […] (^3H-CPX) was added to a final concentration of 1.5 nM. After incubation at 23° C. 90 minutes, the reaction was stopped by filtration on a Brandel MR24 cell harvester and washing with ice-cold Tris-EDTA buffer (three times, approximate volume 10 ml/wash) over Whatman GF/B filters (presoaked for 1 h in 0.3% polyethylenimine to reduce non-specific binding). Filters were transferred to scintillation vials and 5 ml of Scintisafe (VWR, Brisbane, Calif.) was added. The amount of radioactivity retained on the filters was determined by liquid scintillation spectrometry. Protein determinations were by the method of Bradford (1976. Anal. Biochem. 72:248) using bovine serum albumin as the standard.

Row | Ki | Compound
1 | 1.91 µM and 2.56 µM | (3R)-3-({9-[(5S,2R,3R)-3-hydroxy-5-(hydroxymethyl)oxolan-2-yl]purin-6-yl}amino)pyrrolidinyl naphthyl ketone [CVT 4627]
2 | > 5 µM | (3R)-3-({9-[(5S,2R,3R)-3-hydroxy-5-(hydroxymethyl)oxolan-2-yl]purin-6-yl}amino)pyrrolidinyl 4-fluorophenyl ketone [CVT 4607]
3 | > 5 µM | 1-[(3R)-3-({9-[(5S,2R,3R)-3-hydroxy-5-(hydroxymethyl)oxolan-2-yl]purin-6-yl}amino)pyrrolidinyl]-2-methylpropan-1-one [CVT 4614]
4 | > 5 µM | (3R)-3-({9-[(5S,2R,3R)-3-hydroxy-5-(hydroxymethyl)oxolan-2-yl]purin-6-yl}amino)pyrrolidinyl 4-(trifluoromethyl)phenyl ketone [CVT 4610]
5 | 4.44 µM and 2.94 µM | OC[C@@H]1C[C@@H](O)[C@H](n2cnc3c(N[C@@H]4CCCCC4O)ncnc32)O1 (stereo partly drawn) [CVT 4622, 2-{6-[((1R)-2-hydroxycyclohexyl)amino]purin-9-yl}(5S,2R,3R)-5-(hydroxymethyl)oxolan-3-ol]
6 | 1 µM | OC[C@@H]1C[C@@H](O)[C@H](n2cnc3c(N[C@@H]4CCOC4)ncnc32)O1 [CVT 3454, 2-{6-[((3R)oxolan-3-yl)amino]purin-9-yl}(5S,2R,3R)-5-(hydroxymethyl)oxolan-3-ol]
7 | > 5 µM | O=S(=O)(c1ccccc1)N1CC[C@@H](Nc2ncnc3c2ncn3[C@@H]2O[C@H](CO)C[C@H]2O)C1 [CVT 4629, (3R)-3-({9-[(5S,2R,3R)-3-hydroxy-5-(hydroxymethyl)oxolan-2-yl]purin-6-yl}amino)-1-(phenylsulfonyl)pyrrolidine]
8 | 2.84 µM | (3R)-3-({9-[(5S,2R,3R)-3-hydroxy-5-(hydroxymethyl)oxolan-2-yl]purin-6-yl}amino)pyrrolidinyl 2-fluorophenyl ketone [CVT 4606]
9 | 4.01 µM and 3.5 µM | OC[C@@H]1C[C@@H](O)[C@H](n2cnc3c(N[C@@H]4CCCC4O)nc(Cl)nc32)O1 (stereo partly drawn) [CVT 4626, 2-{6-[((1R)-2-hydroxycyclopentyl)amino]-2-chloropurin-9-yl}(5S,2R,3R)-5-(hydroxymethyl)oxolan-3-ol]
10 | 4.09 µM and 3.69 µM | OC[C@@H]1C[C@@H](O)[C@H](n2cnc3c(N[C@H]4CCC[C@@H]4O)ncnc32)O1 [CVT 4625, (5S,2R,3R)-2-{6-[((1S,2S)-2-hydroxycyclopentyl)amino]purin-9-yl}-5-(hydroxymethyl)oxolan-3-ol]
11 | > 5 µM | OC[C@@H]1C[C@@H](O)[C@H](n2cnc3c(N[C@H]4CC[C@H](O)CC4)ncnc32)O1
12 | > 5 µM | (3R)-3-({9-[(5S,2R,3R)-3-hydroxy-5-(hydroxymethyl)oxolan-2-yl]purin-6-yl}amino)pyrrolidinyl 3-fluorophenyl ketone [CVT 4613]
13 | > 5 µM | (3R)-3-({9-[(5S,2R,3R)-3-hydroxy-5-(hydroxymethyl)oxolan-2-yl]purin-6-yl}amino)pyrrolidinyl 2-naphthyl ketone [CVT 4612]
14 | > 5 µM | CC(=O)N1CC[C@@H](Nc2ncnc3c2ncn3[C@@H]2O[C@H](CO)C[C@H]2O)C1 [CVT 4617, (3R)-3-({9-[(5S,2R,3R)-3-hydroxy-5-(hydroxymethyl)oxolan-2-yl]purin-6-yl}amino)-1-acetylpyrrolidine]
15 | > 5 µM | (3R)-3-({9-[(5S,2R,3R)-3-hydroxy-5-(hydroxymethyl)oxolan-2-yl]purin-6-yl}amino)pyrrolidinyl 4-methoxyphenyl ketone [CVT 4609]
16 | > 5 µM | (3R)-3-({9-[(5S,2R,3R)-3-hydroxy-5-(hydroxymethyl)oxolan-2-yl]purin-6-yl}amino)pyrrolidinyl 4-ethylphenyl ketone [CVT 4611]
17 | > 5 µM | 4-{[(3R)-3-({9-[(5S,2R,3R)-3-hydroxy-5-(hydroxymethyl)oxolan-2-yl]purin-6-yl}amino)pyrrolidinyl]carbonyl}benzenecarbonitrile [CVT 4608]

System: not given
Test: not given
Settings: cited from earlier work

Row | Compound | half-life
18 | Nc1ncnc2c1ncn2[C@@H]1O[C@H](CO)[C@@H](O)[C@H]1O [adenosine, Adenosine] | less than 10 sec
